A value given as a limit tells only on which side of the number the result lay.

Here are results for seven compounds from patent publication US11286271B2, “Iridium (III) complexes containing N-heterocyclic carbene ligand, synthesis, and their use thereof in cancer treatment” (The University of Hong Kong, priority 2018, dated 2022).

The test system of series [1] is NCI-H460 lung cancer cells. Briefly: Cytotoxicity and photocytotoxicity, MTT assay, NCI-H460 in dark or under visible light. The settings on record: for PI = IC50(dark)/IC50(light): NCI-H460, phototoxicity index. The class given is cell-based, human. The method, then: FIG. 12A-12G. Plots of cell viability of NCI-H460 lung cancer cells upon 72 h treatment with the iridium(III) porphyrin complexes and cis-platin in dark or under light irradiation (2.8 mW cm^−2 for 1 h).
NCI-H460 lung cancer cells incubated with the complexes were exposed to a low dose of visible light irradiation (2.8 mW cm^−2) for 1 h. […] The cytotoxicity of [Ir^III(oep)Cl(CO)] was also evaluated for comparison.

The nature of series [2]: Lipophilicity, n-octanol / saline partition. The series is classed as physicochemical. The conditions noted are these: n-octanol / saline solution (0.9% w/v), by amount of iridium.
Series [3] is described as follows: Singlet oxygen generation quantum yield from 1O2 emission. The series is classed as physicochemical. The settings on record: oxygen-saturated CHCl3, referenced to H2tpp.
For series [4] the following is noted: in CHCl3, reference standard; cited from earlier work.
Series [5] concerns panel of human cancer cell lines. The series is described as follows: Cytotoxicity towards a panel of human cancer cell lines. The settings on record: summary of Table 2.
A further series has as its system MCF-7. The series is described as follows: In vitro cytotoxicity, MTT assay, MCF-7. The class given is cell-based, human. The settings on record: 72 h incubation. In general terms: Tetrazolium dyes change colour on reduction, which living cells bring about.
For a further series, the system named is HepG2. The series is described as follows: In vitro cytotoxicity, MTT assay, HepG2. The series is classed as cell-based, human. The settings on record: 72 h incubation.
Series [6] relates to peptide ([…]) from thioredoxin (Trx). Briefly: Photoinduced oxidation of Trx model peptide by ESI-MS/MS. The conditions noted are these: peptide 20 μM, complex 10 μM, light irradiation 1 h. The class given is biochemical.
Text: A peptide ([sequence]) from thioredoxin (Trx) was employed as a model to investigate the possible oxidative modification sites by electrospray ionization tandem mass spectrometry (ESI-MS/MS).
For series [7], the system named is NCI-H460 lung cancer cells. The series is described as follows: Cellular ROS generation by DCF fluorescence (H2DCF-DA probe). The series is classed as cell-based, human. The settings on record: 1 μM, 2 h, visible light irradiation.
Method: (A) Generation of ROS examined by DCF fluorescence measurement in NCI-H460 cells treated with or without iridium(III) porphyrin complexes (1 μM) for 2 h with or without irradiation by visible light.
To examine the relationship between photocytotoxicity and the photosensitizing properties of the complexes, we measured the cellular reactive oxygen species (ROS) generation using the ROS probe H2DCF-DA after treatment of cancer cells with the iridium(III) porphyrin complexes.
The subject of a further series is MS-1 endothelial cells. The series is described as follows: Inhibition of endothelial cell tube formation (angiogenesis). The class given is cell-based. The conditions noted are these: 0.1 μM. From the text: (§1) FIGS. 8A-8C. […] (A) Apoptosis/necrosis in NCI-H460 cells as examined by flow cytometry of annexin-V-FITC/propidium iodide-stained cells. (B) Cell cycle progression in NCI-H460 cells as examined by flow cytometry. (C) Inhibition of angiogenesis of MS-1 endothelial cells.
(§2) The other two groups of mice received the same treatment without irradiation as a control.

Series [8] relates to NCI-H460 human non-small cell lung cancer xenografts. The series is described as follows: In vivo antitumor activity, intravenous injection, NCI-H460 xenograft. The settings on record: 3 mg/kg intravenous thrice weekly, 16-day treatment. Here is the method: (A) Tumor volume and (B) body weight of mice. Data are expressed as the mean±standard error; *p<0.05.
Nude mice bearing NCI-H460 human non-small cell lung cancer xenografts were administered 102 (3 mg/kg) via intravenous injection thrice weekly.

Series [9] relates to NCI-H460 cells. The series is described as follows: Subcellular localization by confocal microscopy imaging. The conditions noted are these: 1 μM, 2 h, NCI-H460, ER-Tracker green.
The subject of series [10] is NCI-H460 lung cancer xenografts. The settings on record: 3.0 mg/kg intratumoral.
Text: FIGS. 9A-9D. […] (A) Tumor volume. (B) Body weight of mice. (C) Tumor weight after the experiment. […] (D) Photo of tumors of each group after treatment for 15 days. Data are expressed as the mean±standard error; **p<0.01.
as §2

For series [11], the system named is NCI-H460 cells. Briefly: Cell cycle progression by flow cytometry. The series is classed as cell-based, human. The settings on record: 0.1 μM.
Text: as §1, §2

For series [12], the system named is NCI-H460 cells. Briefly: Apoptosis by annexin-V-FITC/propidium iodide flow cytometry. The series is classed as cell-based, human. The conditions noted are these: 0.1 μM.
Text: as §1, §2

With “[Ir^III(oep)(I^iPr)2](PF6) [Complex 103]”, in series [1] (NCI-H460, visible light 2.8 mW cm^−2, 1 h), the “IC50 upon light irradiation, in words” value is on record as “nanomolar”.

As for `N.N.[Cl][Pt][Cl]` [Cisplatin], the entries for the “PI = IC50(dark)/IC50(light)” value in [1] and in [1] (listed as cisplatin) were 0.72 and under 1, respectively.

For [Ir^III(oep)Cl(CO)], the “PI = IC50(dark)/IC50(light)” value in [1] is over 2.5. In addition, in series [1] (dark, MTT assay, 72 h), the IC50 is over 50 µM. Further, the “Log P” value in series [2] is listed as 2.38.

Turning to [Ir^III(ttp)(IMe)2](ORf) [Complex 101], in series [3], the “Quantum yield of singlet oxygen generation (Φso)” value is 0.64.

For the compound `C1=Cc2nc1c(-c1ccccc1)c1ccc([nH]1)c(-c1ccccc1)c1nc(c(-c3ccccc3)c3ccc([nH]3)c2-c2ccccc2)C=C1` [Complex H2tpp, H2tpp], in [4], the “Quantum yield of singlet oxygen generation (Φso), reference” value is given as 0.55.

In the case of `CCC1=C(CC)C2=NC1=Cc1c(CC)c(CC)c3[n]1[Ir+][n]1c(c(CC)c(CC)c1=CC1=NC(=C3)C(CC)=C1CC)=C2.F[B-](F)(F)F.[C-]#[N+]c1ccc(OC)cc1.[C-]#[N+]c1ccc(OC)cc1` [[Ir^III(ope)(CNPhOMe)2](BF4)], in series [5], the “Cytotoxicity / IC50 in words, panel of human cancer cell lines” value is recorded as “reduced cytotoxicity”. Further, the “PI = IC50(dark)/IC50(light)” value in series [1] was determined as 24.2. The IC50 in the series with MCF-7 and in the series on HepG2 was over 100 µM each time. Further, the “Log P” value in series [2] is 2.81.

As to [Ir^III(oep)(IMe)2](OTf) [Complex 102], in series [6], the “Oxidative modification of Trx peptide” value was “undergo oxidative modifications”. The “Elevation in ROS levels” value in series [7] stood at 10 fold. In addition, the “MS-1 cell tube formation, dark” value in the series on MS-1 endothelial cells (dark) is “moderate inhibition”. Besides, the “MS-1 cell tube formation, light irradiation” value with MS-1 endothelial cells (light irradiation) is given as “completely abrogated”. Moreover, in series [8], the “Toxicity incl. body weight loss and death” value was “without apparent toxicity”; the Tumor size reduction was 41%. The “Pearson's correlation coefficient (R) with ER-Tracker” value in the series with NCI-H460 cells [9] is given as 0.903. For the same compound, the “Tumor weight, photoirradiation group vs dark control group” value in [10] (after 15 days) is “much lower”. Moreover, in series [10] (with or without irradiation, 15 days), the “Changes in body weight” value is “negligible changes in body weight”. The “Quantum yield of singlet oxygen generation (Φso)” value in series [3] was 0.88. The compound further registered a G0/G1-population in the series with NCI-H460 cells [11] (dark (increase from 59.6%)) of 66.3%. Further, in the series on NCI-H460 cells [11] (visible light irradiation), the “sub-G1 population, visible light irradiation” value is 96.9%. In the series on NCI-H460 cells [11] (without light), the “sub-G1 population, before irradiation” value is given as 2.2%. The “Proportion of cells undergoing apoptotic cell death, without irradiation” value with NCI-H460 cells [12] (dark) is 5.9%. Further, the “Proportion of cells undergoing apoptotic cell death, light irradiation” value with NCI-H460 cells [12] (visible light irradiation) stood at 81.7%.

For orientation: IC50 means the point on the concentration scale where inhibition reaches its midpoint. A lower IC50 goes with greater potency. In general, Log P refers to a log measure of how a compound divides between an organic and an aqueous phase. The low end stands for lower lipophilicity, the high end for higher lipophilicity.
